Among the data in ChEMBL document CHEMBL4715700, “Growth inhibitory effect of D-arabinose against the nematode Caenorhabditis elegans: Discovery of a novel bioactive monosaccharide” (Bioorg Med Chem Lett, 2016) are IC50 and Activity values, retold here.

The test system of data set [1] is Caenorhabditis elegans. Put plainly: Growth inhibition of Caenorhabditis elegans N2 L1 larvae under monoxenic condition assessed as reduction in body size at 42 mM incubated for 72 hrs by microscopic method relative to control. It is filed as functional, organism-based. To be noted: for IC50: N2, 72 h.
The subject of data set [2] is Caenorhabditis elegans. Put plainly: Growth inhibition of Caenorhabditis elegans N2 L1 larvae under monoxenic condition with Escherichia coli food assessed as reduction in body size at 42 mM incubated for 72 hrs by microscopic method relative to control. It is filed as functional.
Data set [3] relates to Caenorhabditis elegans. As to the kind of experiment: Growth inhibition of Caenorhabditis elegans N2 assessed as reduction in body size at 10 mM in presence of D-fructose by microscopic method. It is filed as functional, organism-based.
Data set [4] deals with Caenorhabditis elegans. Put plainly: Growth inhibition of Caenorhabditis elegans N2 assessed as reduction in body size at 10 mM in presence of 125 mM D-glucose by microscopic method. It is filed as functional, organism-based.
Data set [5] relates to Caenorhabditis elegans. As to the kind of experiment: Growth inhibition of Caenorhabditis elegans N2 L1 larvae under monoxenic condition with Escherichia coli food assessed as reduction in motility at 42 mM incubated for 72 hrs by microscopic method relative to control. It is filed as functional, organism-based.
Data set [6] deals with Caenorhabditis elegans. Put plainly: Growth inhibition of Caenorhabditis elegans N2 assessed as reduction in body size at 10 mM in presence of D-ribose by microscopic method. It is filed as functional, organism-based.
For data set [7], the system named is Caenorhabditis elegans. Put plainly: Growth inhibition of Caenorhabditis elegans N2 L1 larvae under axenic condition assessed as reduction in body size at 16 mM incubated for 7 days by microscopic method relative to control. The data set is classed as functional. More on the design: scale not given: the % may be the effect or the level left. The note with it: time 7 day.

The nature of data set [8]: Toxicity in Caenorhabditis elegans N2 under monoxenic condition with Escherichia coli food assessed as mortality at 42 mM incubated for 72 hrs by microscopic method relative to control. To be noted: 42000 µM.

Active and inactive are the calls of the source. The rule behind the calls is not given here.

In the case of `OC[C@H]1OC(O)C[C@@H](O)[C@@H]1O` (stereo partly drawn), in data set [1], the IC50 was found to be 19.5 mM.

As to `O=C[C@H](O)[C@@H](O)[C@H](O)CO`, the result in data set [2] was inactive. Same read-out and setting: the result for `OC1OC[C@@H](O)[C@H](O)[C@@H]1O` (stereo partly drawn) reads “inactive”.

Take `OC1OC[C@H](O)[C@@H](O)[C@@H]1O` (stereo partly drawn): the result in data set [2] was inactive. Same read-out and setting: the result for `OC1OC[C@H](O)[C@@H](O)[C@H]1O` (stereo partly drawn) reads “inactive”; that for `OC1OC[C@H](O)[C@H](O)[C@H]1O` (stereo partly drawn), “inactive”; that for `OC[C@@H](O)C(O)[C@H](O)CO`, “inactive”. On the same count and under the same terms, the result for `OC[C@@H]1OC(O)[C@@H](O)[C@H]1O` (stereo partly drawn) reads “inactive”. Still for that read-out and setting: the result for `OC[C@H]1OC(O)[C@H](O)[C@@H]1O` (stereo partly drawn) reads “inactive”. Turning to `OC1OC[C@@H](O)[C@@H](O)[C@@H]1O` (stereo partly drawn) [D-ARABINOSE], the Activity in data set [2] was 7.8%; in data set [1], “Dose-dependent effect”; in data set [7], 15.2%; in data set [8], “Non-Toxic”. In addition, the result in data set [3] and in data set [6] was inactive. Also, the outcome in data set [4] and in data set [5] was Active. In addition, the 50% inhibitory concentration (IC50) in data set [1] came to 7.5 mM.
